Test results published in patent US20100092479A1, “Compositions and methods for treatment of viral diseases” (CombinatoRx (Singapore) Pte. Ltd., priority 2008, published 2010).
Where a name gives a salt, the structure may show the parent alone. Read-outs that look alike come from different tables or passages of the source.

Legend:
[1] = test system: Huh7 cells expressing a subgenomic RNA replicon of Con1 (genotype 1b); experiment: HCV replicon assay (luciferase, SteadyLite), Example 1; type: cell-based; settings: single agent; for IC50: read-out: IC50 (concentration required to achieve 50% inhibition of viral replication); for Emax: read-out: Max Eff (maximum effect, inhibition of viral replication)
Experimental: The HCV replicon assay enables screening of compounds with antiviral activity against HCV viral RNA replication. Huh7 cells expressing a subgenomic RNA replicon of Con1 (genotype 1b) sequence origin and expressing the reporter enzyme luciferase were obtained from ReBLikon, GmBH. In order to perform the assay, replicon cells were seeded on a 384-well plate at 4,000 cells/well in a total volume of 30 μL well. The plated cells were incubated at 37° C., 5% CO2. Pre-diluted compounds at a 10× concentration were added to each well to achieve the desired final concentration. Plates were centrifuged at 900×g, 1 minute following the addition of compounds. Cells were incubated an additional 48 hours or 72 hours at 37° C., 5% CO2. Plates were removed from the incubator 30 minutes to 1 hour prior to the addition of 25 μL/well of SteadyLite luciferase assay reagent from Perkin Elmer in order to equilibrate plates to room temperature. Following the addition of SteadyLite reagent, cells were allowed to incubate for 10 minutes prior to collecting data with a luminometer. Antiviral activity was quantified by the inhibition of luciferase activity.
For screens involving a combination of compounds, a synergy score was calculated by the formula S=log fX log fYΣIdata(Idata−/ILoewe), summed over all non-single-agent concentration pairs, and where log fX,Y are the natural logarithm of the dilution factors used for each single agent. This effectively calculates a volume between the measured and Loewe additive response surfaces, weighted towards high inhibition and corrected for varying dilution factors. […] In general, the magnitude of the synergy score indicates the strength of the synergistic interaction.

Huh7 parental cell line = experiment: Host proliferation counterscreen measuring cellular ATP levels (ATPLite); type: cell-based, human
Experimental: (§1) The human hepatoma cell line Huh-7^1 and Huh-luc/neo-ET cells (ReBLikon, GmbH) were maintained in Dulbecco's modified Eagle's medium (DMEM; Gibco Invitrogen) supplemented with 10% Fetal Bovine Serum (FBS, Gibco Invitrogen),1% Penicillin/Streptomycin (Gibco Invitrogen), 1% Gluta MAX-1 (Gibco Invitrogen) and 1% Non-Essential Amino Acids Solution (Gibco Invitrogen) at 37° C., 5% CO2. Huh-luc/neo-ET cells were grown in medium additionally supplemented with 250 ug/ml Geneticin (G418, Gibco Invitrogen). These cells stably express an HCV genotype 1b subgenomic replicon encoding firefly (Photinus pyralis) luciferase, the coding sequence for ubiquitin and neomycin phosphotransferase downstream of the HCV IRES and upstream of an EMCV IRES which mediates translation of downstream viral nonstructural proteins NS3 to NS5B^2. For all experimental procedures Huh-luc/neo-ET and Huh-7 parental cells were seeded in DMEM without phenol red in the absence of G418 and Penicillin/Streptomycin (screening medium).
(§2) Cells were seeded in 30 μl of screening medium at 4000 cells/well on white (Huh-luc/neo-ET cells for viral inhibition assay) or black (Huh7 cells for proliferation inhibition assay) 384-well assay plates (Matrix) and incubated overnight for approximately 20 hours. Using a MiniTrak™ Robotic Liquid Handling System (Perkin-Elmer) 1 μl of compound stock solutions (1000× concentration in DMSO unless otherwise mentioned) in an X (2-fold dilutions of compound horizontally arrayed) or Y (2-fold dilutions of compound vertically arrayed) format was transferred from master plates into 384-well clear bottom plates containing 100 μl screening medium (dilution plates) and mixed thoroughly. From each X and Y dilution plate, 3.3 μl was subsequently transferred to the 384-well assay plates for a final compound dilution of 1:1000 generating a 9×9 (81-point) dose response matrix. The cells were then incubated for 48 hours prior to measuring luciferase activity (viral inhibition) or ATP depletion (proliferation inhibition). 25 μl of SteadyLite (Perkin-Elmer) was added to the white 384-well assay plates and 15 μl of ATPLite (Perkin-Elmer) was added to the black 384-well plates which were subsequently incubated at least 5 minutes before measuring the luminescent signal. All luminescence measurements were assayed for 0.1 sec per well with an EnVision™ Xcite multilabel automatic plate reader with Enhanced Luminescence (Perkin-Elmer) and expressed as the number of relative light units (RLU) detected. Compounds were assayed in duplicate 9×9 dose matrices on each plate and DMSO-only control wells were included as negative untreated controls.
(§3) The resulting impact on viral replication, as measured by replicon luciferase activity, is shown as dose response curves in FIG. 1a. A host proliferation counterscreen measuring cellular ATP levels was assessed in parallel using the Huh7 parental cell line and the data were used to evaluate the selectivity of each probe. All of the compounds tested produced either increases (proviral) or decreases (antiviral) in replicon replication.

HMGCR = HMGCR protein expression by western analysis in Huh7 cells; type: cell-based, human; settings: Huh7 cells treated 16 hrs, GAPDH control
Experimental: For protein expression analysis, Huh-luc/neo-ET cells were seeded in 4 ml of medium at 250,000 cells per well on 6-well plates and allowed to adhere for 6-8 hours. Stock solutions of compound were added at a 1:1000 dilution and cells were incubated in the presence of compound over 96 hours. Medium and compounds were refreshed once after an initial incubation of 48 hours. Cells were washed in phosphate-buffered saline (PBS, Invitrogen-Gibco) and lysed by the addition of 1× RIPA lysis buffer (0.5 M Tris-HCl, pH 7.4/1.5 M NaCl/2.5% deoxycholic acid/10% NP-40/10 mM EDTA, purchased from Upstate) containing Complete, Mini Protease inhibitor cocktail and PhosSTOP phosphatase inhibitor cocktail tablets (Roche) according to the manufacturer's recommendations. Cell lysates were rocked for 30 minutes at 4° C. and centrifuged at 10,000×g for 10 minutes at 4° C. The protein concentration of each extract was determined by BCA protein assay (Pierce) according to the manufacturer's protocol. […]
To determine the effects of our chemical inhibitors on HMGCR expression, we treated Huh7 cells with the listed concentrations of each chemical for 16 hrs (FIG. 4b). Cell lysates were extracted according to the methods and HMGCR protein expression was analyzed by SDS-PAGE separation and western staining with antibodies specific for HMGCR and GAPDH.

[2] = test system: HCV genotype 1b subgenomic replicon; experiment: cHTS luciferase assay (viral inhibition) in Huh-luc/neo-ET cells, Experiment 2; type: cell-based; settings: single agent; for IC50: Hepatitis C virus, Huh-luc/neo-ET, replicon luciferase activity, 48 hours, read-out: IC50, HCV replication
Experimental: as §1, §2
Dose matrices were assembled from replicate combination blocks on experimental 384-well pates. Raw phenotype measurements T from each treated well were converted to normalized measures of inhibitory activity a=−log10(TN) or fractional inhibition I=1−T/V relative to the median V of 20 vehicle-treated wells arranged around the plate. After normalization, we calculated average activity values between replicate measurements at the same treatment doses, along with σ1σ1, the accompanying standard error estimates. Single agent responses were tested at eleven serially-diluted doses and combination data as 9×9 dose matrices each testing all pairs of 8 serially-diluted single agent concentrations along with their single agent doses as a control.
as §3

HCV RNA = HCV RNA copy number by RT-qPCR in Huh-luc/neo-ET cells; type: cell-based; settings: 72 hr treatment
Experimental: Measurement of HCV RNA levels in response to drug were carried out by first seeding Huh-luc/neo-ET cells in 100 μl of medium at 7,500 cells per well for 72 hour drug treatments and allowed to adhere overnight for approximately 20 hours. Compounds were added at a 1:1000 dilution in duplicate and added to cells in 3 separate experiments. Total RNA was harvested using an RNeasy 96-well kit (Qiagen) according to the manufacturer's protocol and quantified using the Quant-iT™ RiboGreen® RNA Reagent (Invitrogen). Purified RNA (4 μl) was added to TaqMan reactions containing 10 μl of QuantiTect Probe RT-PCR Master Mix (Qiagen) and 0.2 μL, of QuantiTect RT Mix. […] All 20 μl reactions were assayed in an Eppy Twin-Tec skirted PCR plate (Eppendorf) and subjected to quantitative one-step RT-PCR with an Eppendorf Realplex4 qPCR machine (Eppendorf) using the following program: 50° C. for 30 min, 95° C. for 15 min, and 40 cycles of 95° C. for 15 s followed by 60° C. for 1 min 15 s. Absolute quantification of HCV RNA copy number was determined by comparing PCR signals to a standard curve generated from dilutions of a 160 by PCR-amplified fragment of the 5′NTR of HCV. […] All qPCR samples quantified by comparison to the standard curve were subsequently normalized to total RNA per sample to account for variations in sample purification and preparation steps. […]

[3] = single agent, Huh7 parental cells

Row | Compound | IC50 ([1]; Hepatitis C virus, Huh-7) [µM] | Emax ([1]; Hepatitis C virus, Huh-7) [%] | also measured
1 | CCC(C)(C)c1ccc(CC(C)CN2C[C@@H](C)O[C@@H](C)C2)cc1 (stereo partly drawn) [Amorolfine hydrochloride, Amorolfine] | 7.66 | 62 | –
2 | CCN(CC)CCOc1ccc(C(O)(Cc2ccc(Cl)cc2)c2ccc(C)cc2)cc1 (stereo not drawn) [Triparanol] | 1.55 | 87 | –
3 | CC(C)n1c(/C=C/C(O)CC(O)CC(=O)O)c(-c2ccc(F)cc2)c2ccccc21 (stereo not drawn) [Fluvastatin] | 15.8 | 65 | –
4 | O=C(c1ccc(Cl)cc1)N1CCC(=Cc2ccc(C3=NCCO3)cc2)CC1 [BIBB-515] | – | 46 | –
5 | Clc1ccccc1CNC[C@H]1CC[C@H](CNCc2ccccc2Cl)CC1 [AY-9944] | 2.52 | 85 | –
6 | CCN(CC)CCO[C@H]1CC[C@@]2(C)C(=CC[C@@H]3[C@@H]2CC[C@]2(C)C(=O)CC[C@@H]32)C1 [U18666A] | – | – | impact on host cell ATP levels (Huh7 parental cell line; [3]): marginal impact; HMGCR protein expression (HMGCR): apparent overexpression; IC50 [2]: 0.0194 µM; HCV replication (replicon luciferase activity), result in words [2]: inhibited HCV replication
7 | CCN(CC)CCOc1ccc(/C(=C(\Cl)c2ccccc2)c2ccccc2)cc1 [Clomiphene citrate, Clomiphene] | – | 86 | –
8 | CCOP(=O)(OCC)C(=Cc1cc(C(C)(C)C)c(O)c(C(C)(C)C)c1)P(=O)(OCC)OCC [SR 12813] | – | – | Max Eff (maximum effect, inhibition of viral replication) [1]: 47
9 | Terconazole | – | – | Max Eff (maximum effect, inhibition of viral replication) [1]: 95; IC50 [1]: 1.66 µM
10 | COC(=O)[C@H](CC(C)C)NC(=O)c1ccc(NC[C@@H](N)CS)cc1-c1ccccc1 [GGTI-286] | 3.7 | 79 | –
11 | CC[C@H](C)C(=O)O[C@H]1CCC=C2C=C[C@H](C)[C@H](CC[C@@H]3C[C@@H](O)CC(=O)O3)[C@H]21 [Mevastatin] | 0.6 | 101 | –
12 | C=C(CC[C@]12O[C@H](C(=O)O)[C@@](O)(C(=O)O)[C@](C(=O)O)(O1)[C@H](OC(=O)/C=C/[C@@H](C)C[C@@H](C)CC)[C@H]2O)[C@@H](OC(C)=O)[C@H](C)Cc1ccccc1 [Squalestatin] | – | – | effect on HCV RNA replication (viral RNA copy number normalized to total RNA) (HCV RNA): proviral effects
13 | CCC(C)(C)C(=O)O[C@H]1C[C@@H](C)C=C2C=C[C@H](C)[C@H](CC[C@@H]3C[C@@H](O)CC(=O)O3)[C@H]21 [Simvastatin] | 14 | 71 | –
14 | O=C([O-])C[C@H](O)C[C@H](O)/C=C/c1c(C2CC2)nc2ccccc2c1-c1ccc(F)cc1.O=C([O-])C[C@H](O)C[C@H](O)/C=C/c1c(C2CC2)nc2ccccc2c1-c1ccc(F)cc1.[Ca+2] [Itavastatin, calcium salt, Itavastatin] | – | – | Max Eff (maximum effect, inhibition of viral replication) [1]: 92; IC50 [1]: 2.3 µM
15 | CC(C)CCCC(C)[C@H]1CC(=O)C2=C3CC[C@H]4C[C@@H](O)CC[C@]4(C)C3CC[C@@]21C (stereo partly drawn) [Colestolone] | 1.62 | 79 | impact on host cell ATP levels (Huh7 parental cell line; [3]): marginal impact; HCV replication (replicon luciferase activity), result in words [2]: inhibited HCV replication
16 | CCCCCCCCCCCCCCOc1ccc(C(=O)O)o1 [TOFA, 5-(tetradecyloxy)-2-furancarboxylic acid] | 6.25 | 95 | –
17 | C=CCN(C)CCCCCCOc1ccc(C(=O)c2ccc(Br)cc2)c(F)c1 [Ro 48-8071] | 0.06 | 66 | impact on host cell ATP levels (Huh7 parental cell line; [3]): marginal impact; HMGCR protein expression (HMGCR): apparent overexpression; IC50 [2]: 0.0683 µM; HCV replication (replicon luciferase activity), result in words [2]: inhibited HCV replication
18 | C[C@@H](Cc1ccc(C(C)(C)C)cc1)CN1C[C@@H](C)O[C@@H](C)C1 [fenpropimorph, Fenpropimorph] | – | – | impact on host cell ATP levels (Huh7 parental cell line): marginal impact; HCV replication (replicon luciferase activity), result in words [2]: inhibited HCV replication
19 | CCCCCCC(=O)CCCCCC/C=C/C[C@@H](O)[C@H](O)[C@@](N)(CO)C(=O)O [Myriocin] | – | 33 | –
20 | CCC(C)(C)c1ccc(CC(C)CN2C[C@@H](C)O[C@@H](C)C2)cc1 (stereo partly drawn) [amorolfine, Amorolfine] | – | – | impact on host cell ATP levels (Huh7 parental cell line; [3]): marginal impact; HCV replication (replicon luciferase activity), result in words [2]: inhibited HCV replication
21 | CC[C@H](C)C(=O)O[C@H]1C[C@@H](C)C=C2C=C[C@H](C)[C@H](CC[C@@H]3C[C@@H](O)CC(=O)O3)[C@H]21 [Lovastatin] | 1.64 | 102 | –
